TGI and GI50 data for twelve compounds are collected here from PubChem BioAssay (NCI).

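These data come from cells grown in 96-well plates and exposed to compound for 48 hours at five concentrations. GI50: concentration for 50% inhibition of growth. Definition used: TGI = concentration required for complete inhibition of growth.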

Test systems include OVCAR-3 ovarian; M14 melanoma; OVCAR-5 ovarian; HCT-116 colon; KM12 colon; A549 NSCLC; CCRF-CEM leukemia; NCI-H522 lung; UACC-62 melanoma; LOX IMVI melanoma.
Common to all, as to assay: inhibition of tumour cell growth, NCI panel, 48 h

As to `C/C(CC(=O)CCC(=O)Nc1cccc(C(F)(F)F)c1)=N\NC(=O)NN`, the TGI with OVCAR-3 ovarian, in the test on M14 melanoma, with OVCAR-5 ovarian, in the test with HCT-116 colon, in the test with KM12 colon and with A549 NSCLC was over 100 µM throughout. Also, the TGI in the test with CCRF-CEM leukemia, in the test on NCI-H522 lung and in the test with UACC-62 melanoma was over 100 µM in each case.

In the case of `O=C(Nc1ccccc1OC(F)(F)F)Nc1n[nH]c2ccccc12`, the GI50 in the test on OVCAR-3 ovarian is 90.8 µM; in the test on M14 melanoma, 25.5 µM; in the test on OVCAR-5 ovarian, 34.3 µM; with HCT-116 colon, 16.2 µM; with KM12 colon, 23.4 µM; with LOX IMVI melanoma, 22.5 µM. For the same compound, the results for the GI50 in the test with A549 NSCLC, in the test with NCI-H522 lung and with UACC-62 melanoma were 15.7 µM, 33.9 µM and 31.7 µM, respectively. Further, the TGI in the test with OVCAR-3 ovarian, in the test on M14 melanoma, with OVCAR-5 ovarian, in the test on HCT-116 colon, with KM12 colon and in the test with LOX IMVI melanoma was over 100 µM each time. For the same compound, the TGI in the test on A549 NSCLC is 60.1 µM; in the test with NCI-H522 lung, over 100 µM; in the test with UACC-62 melanoma, over 100 µM.

With `N#CC(c1ccc(Cl)cc1)c1cccc(C(C#N)c2ccc(Cl)cc2)n1` (stereo not given), the TGI in the test with OVCAR-3 ovarian, in the test on M14 melanoma, with OVCAR-5 ovarian, in the test on KM12 colon, in the test on A549 NSCLC and in the test on CCRF-CEM leukemia was over 100 µM throughout. In addition, the TGI with NCI-H522 lung and with UACC-62 melanoma was over 100 µM throughout.

Consider `Cc1ccc(N=Nc2ccc(N(CCC#N)CCC#N)cc2C)c(Br)c1`, for which the TGI in the test on OVCAR-3 ovarian was over 100 µM; in the test with M14 melanoma, 92.3 µM; in the test with OVCAR-5 ovarian it was over 100 µM; with KM12 colon, 55.8 µM; with A549 NSCLC, over 100 µM; with CCRF-CEM leukemia, over 100 µM. Besides, the TGI in the test with NCI-H522 lung and in the test on UACC-62 melanoma was over 100 µM throughout.

Consider `CC(=O)NNc1nc(C)c(C(=O)NNC(=O)C(=O)Nc2c(Cl)cc([N+](=O)[O-])cc2Cl)s1`, for which the TGI is 52.8 µM in the test with OVCAR-3 ovarian; over 100 µM with M14 melanoma; 93.4 µM in the test with OVCAR-5 ovarian; over 100 µM with HCT-116 colon; over 100 µM in the test with KM12 colon; over 100 µM in the test with LOX IMVI melanoma. Besides, the TGI with A549 NSCLC is over 100 µM; in the test on CCRF-CEM leukemia, 93.4 µM; with UACC-62 melanoma it was 86.2 µM.

On to `COC(=O)CC1CCN(C#N)CC1CC[N+](=O)[O-]` (stereo not given), for which the TGI in the test with OVCAR-3 ovarian, in the test with M14 melanoma, with HCT-116 colon, with KM12 colon, in the test on A549 NSCLC and in the test on CCRF-CEM leukemia was over 100 µM throughout. The TGI with NCI-H522 lung and with UACC-62 melanoma was over 100 µM each time.

Consider `COC(CN1C(=O)c2cccc3cccc(c23)C1=O)OC`, for which the TGI with OVCAR-3 ovarian, with M14 melanoma, in the test on OVCAR-5 ovarian, with HCT-116 colon, in the test on KM12 colon and in the test with LOX IMVI melanoma was over 100 µM each time. Also, the TGI with A549 NSCLC, in the test on CCRF-CEM leukemia and with UACC-62 melanoma was over 100 µM each time.

Consider `Cc1nc2ccccc2c(=O)n1-c1ccccc1I`, for which the TGI with OVCAR-3 ovarian, with M14 melanoma, in the test with OVCAR-5 ovarian, with HCT-116 colon, in the test on A549 NSCLC and in the test on CCRF-CEM leukemia was over 100 µM throughout. Moreover, the TGI in the test on NCI-H522 lung and in the test on UACC-62 melanoma was over 100 µM in each case.

For `Cn1c2ccccc2c2c(Nc3ccccc3)c3ccccc3nc21`, the GI50 with M14 melanoma is 15.9 µM; in the test on OVCAR-5 ovarian it was over 100 µM; in the test with HCT-116 colon, 13.2 µM; in the test on NCI-H522 lung, 45.6 µM; in the test with UACC-62 melanoma it was 4.56 µM. Moreover, the TGI is 33.3 µM in the test on M14 melanoma; over 100 µM in the test with OVCAR-5 ovarian; 36.1 µM with HCT-116 colon; over 100 µM in the test with NCI-H522 lung; 18.6 µM in the test on UACC-62 melanoma.

For `O=CC[C@H]1C(=O)C[C@@H]2CCC[C@@H]21`, the TGI with OVCAR-3 ovarian, with M14 melanoma, with OVCAR-5 ovarian, in the test with HCT-116 colon, with KM12 colon and with A549 NSCLC was over 100 µM each time. The TGI with CCRF-CEM leukemia, in the test with NCI-H522 lung and in the test with UACC-62 melanoma was over 100 µM throughout.

Consider `COc1cc(CNc2cnc3cc(N)cc(N)c3n2)cc(OC)c1`, for which the GI50 was 19.6 µM with OVCAR-3 ovarian; 18.1 µM with M14 melanoma; 17.6 µM with OVCAR-5 ovarian; 16.3 µM in the test with HCT-116 colon; 22.5 µM in the test with KM12 colon; 33 µM in the test with A549 NSCLC. Moreover, the GI50 with CCRF-CEM leukemia is 18.5 µM; in the test on NCI-H522 lung, 23.8 µM. In addition, the TGI in the test on OVCAR-3 ovarian was 48.3 µM; in the test on M14 melanoma it was 33.8 µM; with OVCAR-5 ovarian it was 48 µM; in the test on HCT-116 colon it was 29.8 µM; in the test with KM12 colon it was 71.8 µM; with A549 NSCLC, over 100 µM. Moreover, the TGI in the test with CCRF-CEM leukemia was determined as 52.3 µM; in the test with NCI-H522 lung, 78.2 µM.

Take `CO[C@H](C(=O)[C@@H](O)[C@@H](C)O)[C@@H]1Cc2cc3cc(O[C@H]4C[C@@H](O[C@H]5C[C@@H](O)[C@H](O)C(C)O5)[C@H](O)C(C)O4)c(C)c(O)c3c(O)c2C(=O)[C@H]1O[C@H]1C[C@@H](O[C@H]2C[C@@H](O[C@H]3C[C@](C)(O)C(=O)C(C)O3)[C@@H](O)C(C)O2)[C@H](O)C(C)O1` (stereo not given in full): the GI50 in the test on OVCAR-3 ovarian was 0.0907 µM; with M14 melanoma it was 0.12 µM; in the test on OVCAR-5 ovarian it was 0.115 µM; in the test on HCT-116 colon, 0.0444 µM; with KM12 colon, 0.0672 µM; with A549 NSCLC, 0.106 µM. Also, the GI50 is 0.211 µM with CCRF-CEM leukemia, 0.0288 µM in the test on NCI-H522 lung and 0.0187 µM in the test on UACC-62 melanoma. Besides, the TGI in the test on OVCAR-3 ovarian is 3.54 µM; in the test with M14 melanoma, 0.817 µM; with OVCAR-5 ovarian it was over 22.1 µM; with HCT-116 colon it was over 15.7 µM; in the test with KM12 colon, 6.67 µM; in the test with A549 NSCLC, over 33.2 µM. The TGI is over 33.2 µM in the test with CCRF-CEM leukemia, 0.285 µM in the test on NCI-H522 lung and 0.102 µM in the test with UACC-62 melanoma.
